Experiments:
Type in all cases: functional
Mus musculus [1] = organism: Mus musculus; test: The compound was tested for activity to decrease fighting in mouse
Mus musculus [2] = organism: Mus musculus; test: The compound was tested for analgesic activity using writhing (W) test in mouse
Rattus norvegicus [3] = organism: Rattus norvegicus; test: The compound was tested for analgesic activity using (RTF) tail-flick test in rat
Rattus norvegicus [4] = test: The compound was tested for decreasing motor activity in rat at a dose of 2 mg/Kg
Rattus norvegicus [5] = test: The compound was tested for decreasing motor activity in rat. at a dose of 5 mg/Kg
Rattus norvegicus [6] = test: The compound was tested for methamphetamine antagonism in rat at a dose of 1 mg/Kg
Rattus norvegicus [7] = test: The compound was tested for methamphetamine antagonism in rat at a dose of 2 mg/Kg
Rattus norvegicus [8] = test: The compound was tested for serotonin antagonism in rat at a dose of 1 mg/Kg
Rattus norvegicus [9] = test: The compound was tested for serotonin antagonism in rat at a dose of 2 mg/Kg
Rattus norvegicus [10] = test: The compound was tested for hyperexcitability in rat at a dose of 20 mg/Kg
Rattus norvegicus [11] = test: The compound was tested for hyperexcitability in rat at a dose of 5 mg/Kg
Rattus norvegicus [12] = test: The compound was tested for hyperexcitability in rat at a dose of 80 mg/Kg

`CC(CCCc1ccc(F)cc1)c1cc(O)c2c(c1)OC(C)(C)C1=C2CN(CC(=O)NC(N)=O)CC1` (configuration not stated) gave an ED50 (Mus musculus [1]) of 2 mg/kg, an ED50 (Mus musculus [2]) of 0.7 mg/kg and an ED50 (Rattus norvegicus [3]) of 1.6 mg/kg. For the same compound, the Decrease in activity (Rattus norvegicus [4]) was 88%, the Decrease in activity (Rattus norvegicus [5]) was 55% and the Decrease in activity (Rattus norvegicus [6]) was 64%. The Decrease in activity (Rattus norvegicus [7]) was 75%, the Decrease in activity (Rattus norvegicus [8]) was 50% and the Decrease in activity (Rattus norvegicus [9]) was 72%. It also gave a Possible response (Rattus norvegicus [10]) of 90%, a Possible response (Rattus norvegicus [11]) of 46% and a Possible response (Rattus norvegicus [12]) of 100%.
